Earlier results on one molecule are cited in patent publication US10794912B2 (priority 2017, dated 2020).

Structures are written as SMILES.

For the data set the following is noted: in vivo.

`C[C@@H]1Cc2c(Cl)cc(C(=O)N[C@@H](Cc3ccccc3)C(=O)O)c(O)c2C(=O)O1` [ochratoxin A]: the time to death is 5 to 6 days.
